From patent US11964990B2, “1,3,4,7-tetrahydro-2H-pyrrolo[3′,2′:5,6]pyrido[2,3-b][1,4]oxazepine bcl-2 inhibitors” (AbbVie Inc., priority 2022, dated 2024) come the findings set out here.

One assay deals with Bcl-2 protein (Homo sapiens (Human), UniProt P10415). The experiment in a line: TR-FRET binding assay, Bcl-2 (F-Bak peptide probe). To be noted: Bak BH3 peptide probe, Wang's equation. On the procedure: (§1) Determination of the utility of compounds having Formula (I) or Formula (II) as binders to and inhibitors of anti-apoptotic Bcl-2 proteins was performed using the Time Resolved-Fluorescence Resonance Energy Transfer (TR-FRET) Assay. Tb-anti-GST antibody was purchased from Invitrogen (Catalog No. PV4216).
A Bcl-2 human encoding sequence was cloned into a pET41A vector (Novagen). The protein was expressed with E. coli. BL21(DE3)-T1R strain in OETB autoinduction medium at 30° C. for 25 hours. The cell pellets were resuspended in lysis buffer (50 mM Tris, 140 mM NaCl, 1 mM DTT, 10% Glycerol, 2 mM MgCl2, pH 7.3) and lysed with Microfluidizer. The Bcl-2 protein in clarified cell-lysate was purified with affinity chromatography (GST and Ni-NTA). The eluate was loaded onto a Superdex 75 column and further purified with a Q Sepharose column. The protein was purified on a phenyl hydrophobic interaction column and dialyzed in the storage buffer (50 mM Tris, 50 mM NaCl, 2 mM DTT, pH 7.5) and stored at −80° C.
(§2) […] of a protein (Bcl-2 or Bcl-xL)/probe/antibody mixture pre-equilibrated for one hour in assay buffer was added to each well at final concentrations listed in Table 6 below.
(§3) The samples were then mixed on a shaker for 1 minute and equilibrated for an additional 3 hours at room temperature. For each assay plate, a probe/antibody and protein/antibody/probe mixture were included as a negative and a positive control, respectively. Fluorescence was measured on the Envision (Perkin Elmer) using a 340/35 nm excitation filter and 520/525 (F-Bak) and 495/510 nm (Tb-labeled anti-GST antibody) emission filters. Inhibition constants (Ki) were determined using Wang's equation (Wang FEBS Lett. 1995, 360, 111-114). The TR-FRET assay can be performed in the presence of varying concentrations of human serum (HS) to determine apparent half maximal inhibitory concentration (IC50) after HS protein binding.
(§4) Inhibition constants were determined using Wang's equation (Wang FEBS Lett. 1995, 360:111-4).
For orientation: TR-FRET usually uses a lanthanide donor and a delayed reading to cut background.

For another assay, the target named is Bcl-xL protein (Homo sapiens (Human), UniProt Q07817). The assay is described as follows: TR-FRET binding assay, Bcl-xL (F-Bak peptide probe). To be noted: Bak BH3 peptide probe, Wang's equation. On the procedure:
as §1
A human Bcl-xL encoding sequence was cloned into a pET41A vector. The protein was expressed with E. coli. BL21(DE3)-T1R strain in OETB autoinduction medium at 30° C. for 25 hours. The cell pellets were resuspended in lysis buffer (50 mM Tris, 140 mM NaCl, 1 mM DTT, 10% Glycerol, 0.1% Triton X-100, pH 7.5) and lysed with Microfluidizer. The Bcl-xL protein in clarified cell-lysate was purified with GST affinity chromatography. The eluate was dialyzed in the storage buffer (1×PBS, 10% Glycerol, 2 mM DTT, 1 mM Sodium Azide, pH 7.4) and stored at −80° C.
as §2, §3, §4

Another assay has as its system Molt-4 cells. The experiment in a line: Cell viability counter screen assay (CellTiter-Glo) in Molt-4 cells. Type of assay: cell-based. To be noted: 24 hours, 10% Human Serum, 50% decrease in cell viability. A digest of the protocol:
(§5)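 RS4;11 or Molt-4 cells (3000 per well) in RPMI 1640 with 10% human serum treated with compound for 24 h, 5% CO2. Viability measured by CellTiter-Glo as percent of control; EC50 from sigmoidal dose-response curves.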

The test system of another assay is RS4;11 cells. The experiment in a line: Cell viability assay (CellTiter-Glo) in RS4;11 cell line. Type of assay: cell-based. To be noted: 24 hours, 10% Human Serum, 50% decrease in cell viability. In outline: as §5

Where only a bound is given, the exact number is not on record here.

Bcl-xL protein, sequence (Q07817 other isoform, or with tags, fused parts or gaps): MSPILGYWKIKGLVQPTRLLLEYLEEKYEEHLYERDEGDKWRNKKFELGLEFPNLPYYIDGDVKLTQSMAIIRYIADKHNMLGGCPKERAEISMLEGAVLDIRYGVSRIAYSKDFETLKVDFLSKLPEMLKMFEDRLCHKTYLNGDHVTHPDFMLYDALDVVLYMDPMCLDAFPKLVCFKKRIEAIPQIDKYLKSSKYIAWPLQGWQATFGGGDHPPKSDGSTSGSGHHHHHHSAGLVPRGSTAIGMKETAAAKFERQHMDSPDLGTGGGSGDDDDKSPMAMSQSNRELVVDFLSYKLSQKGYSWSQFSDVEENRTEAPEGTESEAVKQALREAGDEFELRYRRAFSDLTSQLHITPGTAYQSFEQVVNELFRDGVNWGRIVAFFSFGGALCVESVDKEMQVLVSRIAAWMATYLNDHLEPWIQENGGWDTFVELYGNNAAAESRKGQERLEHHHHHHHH
Bcl-2 protein, sequence (P10415 other isoform, or with tags, fused parts or gaps): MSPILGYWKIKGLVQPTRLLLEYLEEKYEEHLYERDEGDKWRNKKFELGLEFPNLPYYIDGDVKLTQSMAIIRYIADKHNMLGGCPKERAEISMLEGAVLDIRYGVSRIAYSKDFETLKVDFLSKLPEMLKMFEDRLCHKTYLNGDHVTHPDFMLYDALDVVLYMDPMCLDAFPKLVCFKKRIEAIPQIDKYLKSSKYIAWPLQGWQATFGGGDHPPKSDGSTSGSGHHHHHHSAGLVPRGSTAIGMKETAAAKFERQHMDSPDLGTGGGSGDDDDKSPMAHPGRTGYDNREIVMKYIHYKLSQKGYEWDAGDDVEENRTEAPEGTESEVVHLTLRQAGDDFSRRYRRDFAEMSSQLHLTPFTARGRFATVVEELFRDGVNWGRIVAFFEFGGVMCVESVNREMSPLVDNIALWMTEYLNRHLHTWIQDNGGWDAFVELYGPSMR

On to `CC1(C)CC(c2ccc(Cl)cc2)=C2CN3CCN(c4ccc(C(=O)NS(=O)(=O)c5ccc(NCC6CCCCO6)c([N+](=O)[O-])c5)c(N5CCCOc6nc7[nH]ccc7cc65)c4)C[C@H]3COCCCO[C@@H]2C1` (stereo partly drawn) [Example 45, 4-((4aS,10aR)-14-(4-chlorophenyl)-12,12-dimethyl-1,2,4a,5,8,9,10a,11,13,15-decahydro-7H,12H-benzo[f]pyrazino[2,1-c][1,8]dioxa[4]azacycloundecin-3(4H)-yl)-2-(3,4-dihydro-2H-pyrrolo[3′,2′:5,6]pyrido[2,3-b][1,4]oxazepin-1(7H)-yl)-N-((3-nitro-4-(((tetrahydro-2H-pyran-2-yl)methyl)amino)phenyl)sulfonyl)benzamide], for which the Ki (as a rule, the dissociation constant of the complex between target and ligand, obtained from inhibition or displacement) at Bcl-2 protein was 0.238 nM; at Bcl-xL protein, 27.8 nM. In addition, the EC50 (commonly the midpoint of the concentration-response curve) in the assay with Molt-4 cells was above 10 µM; with RS4;11 cells, 10.7 nM.
In the same order, the values of `COC[C@]1(F)C[C@H](CNc2ccc(S(=O)(=O)NC(=O)c3ccc(N4CCN5CC6=C(c7ccc(Cl)cc7)CC(C)(C)C[C@H]6OCCCOC[C@@H]5C4)cc3N3CCCOc4nc5[nH]ccc5cc43)cc2[N+](=O)[O-])C1` [Example 47, 4-((4aS,10aR)-14-(4-chlorophenyl)-12,12-dimethyl-1,2,4a,5,8,9,10a,11,13,15-decahydro-7H,12H-benzo[f]pyrazino[2,1-c][1,8]dioxa[4]azacycloundecin-3(4H)-yl)-2-(3,4-dihydro-2H-pyrrolo[3′,2′:5,6]pyrido[2,3-b][1,4]oxazepin-1(7H)-yl)-N-((4-((((1r,3r)-3-fluoro-3-(methoxymethyl)cyclobutyl)methyl)amino)-3-nitrophenyl)sulfonyl)benzamide] are 0.28 nM, 25.8 nM, above 10 µM and 10.9 nM.
In the case of `CO[C@]1(CF)C[C@@H](CNc2ccc(S(=O)(=O)NC(=O)c3ccc(N4CCN5CC6=C(c7ccc(Cl)cc7)CC(C)(C)C[C@H]6OCCCOC[C@@H]5C4)cc3N3CCCOc4nc5[nH]ccc5cc43)cc2[N+](=O)[O-])C1` [Example 48, 4-((4aS,10aR)-14-(4-chlorophenyl)-12,12-dimethyl-1,2,4a,5,8,9,10a,11,13,15-decahydro-7H,12H-benzo[f]pyrazino[2,1-c][1,8]dioxa[4]azacycloundecin-3(4H)-yl)-2-(3,4-dihydro-2H-pyrrolo[3′,2′:5,6]pyrido[2,3-b][1,4]oxazepin-1(7H)-yl)-N-((4-((((1r,3r)-3-(fluoromethyl)-3-methoxycyclobutyl)methyl)amino)-3-nitrophenyl)sulfonyl)benzamide], the Ki at Bcl-2 protein was 0.206 nM; at Bcl-xL protein, 28.6 nM. For the same compound, the EC50 with Molt-4 cells worked out at 5.84 µM; in the assay on RS4;11 cells it was 18.1 nM.
In the same order, the values of `CC1(C)CC(c2ccc(Cl)cc2)=C2CN3CCN(c4ccc(C(=O)NS(=O)(=O)c5cnc(OC[C@H]6CC[C@@](C)(O)CC6)c(Cl)c5)c(N5CCCOc6nc7[nH]ccc7cc65)c4)C[C@H]3COCCCO[C@@H]2C1` [Example 50, N-((5-chloro-6-(((1s,4s)-4-hydroxy-4-methylcyclohexyl)methoxy)pyridin-3-yl)sulfonyl)-4-((4aS,10aR)-14-(4-chlorophenyl)-12,12-dimethyl-1,2,4a,5,8,9,10a,11,13,15-decahydro-7H,12H-benzo[f]pyrazino[2,1-c][1,8]dioxa[4]azacycloundecin-3(4H)-yl)-2-(3,4-dihydro-2H-pyrrolo[3′,2′:5,6]pyrido[2,3-b][1,4]oxazepin-1(7H)-yl)benzamide] are 0.237 nM, 39.7 nM, above 10 µM and 41.9 nM.
In the same order, the values of `CO[C@@H]1CC[C@@H](COc2ccc(S(=O)(=O)NC(=O)c3ccc(N4CCN5CC6=C(c7ccc(Cl)cc7)CC(C)(C)C[C@H]6OCCCOC[C@@H]5C4)cc3N3CCCOc4nc5[nH]ccc5cc43)cc2[N+](=O)[O-])OC1` [Example 51] are 0.1 nM, 18.9 nM, above 10 µM and 9.6 nM.
